Assay results reported in the NIST ThermoML archive (doi:10.1021/acs.jced.8b00979).

Assay: xn = mol fraction of the nth substance listed
Settings: 100 kPa, Liquid; for viscosity: Capillary tube (Ostwald / Ubbelohde) method; for mass density: Vibrating tube method

CCCC(C)O (stereo not given) [pentan-2-ol] + CCCCCO
Settings | mass density [kg/m3] | viscosity [mPa·s]
288.15 K, x2 = 0 | 813.34 | 5.057
288.15 K, x2 = 0.1 | 813.91 | 4.988
288.15 K, x2 = 0.2 | 814.5 | 4.929
288.15 K, x2 = 0.298 | 815.05 | 4.881
288.15 K, x2 = 0.4 | 815.6 | 4.842
288.15 K, x2 = 0.5 | 816.13 | 4.806
288.15 K, x2 = 0.601 | 816.66 | 4.772
288.15 K, x2 = 0.699 | 817.15 | 4.741
288.15 K, x2 = 0.798 | 817.63 | 4.714
288.15 K, x2 = 0.901 | 818.1 | 4.697
293.15 K, x2 = 0 | 809.38 | 4.174
293.15 K, x2 = 0.1 | 810 | 4.141
293.15 K, x2 = 0.2 | 810.63 | 4.114
293.15 K, x2 = 0.298 | 811.21 | 4.095
293.15 K, x2 = 0.4 | 811.79 | 4.079
293.15 K, x2 = 0.5 | 812.36 | 4.065
293.15 K, x2 = 0.601 | 812.92 | 4.054
293.15 K, x2 = 0.699 | 813.44 | 4.047
293.15 K, x2 = 0.798 | 813.95 | 4.045
293.15 K, x2 = 0.901 | 814.45 | 4.044
298.15 K, x2 = 0 | 805.35 | 3.398
298.15 K, x2 = 0.1 | 806.03 | 3.388
298.15 K, x2 = 0.2 | 806.7 | 3.382
298.15 K, x2 = 0.298 | 807.31 | 3.377
298.15 K, x2 = 0.4 | 807.93 | 3.373
298.15 K, x2 = 0.5 | 808.54 | 3.371
298.15 K, x2 = 0.601 | 809.14 | 3.377
298.15 K, x2 = 0.699 | 809.7 | 3.385
298.15 K, x2 = 0.798 | 810.24 | 3.402
298.15 K, x2 = 0.901 | 810.78 | 3.434
303.15 K, x2 = 0 | 801.24 | 2.82
303.15 K, x2 = 0.1 | 801.98 | 2.815
303.15 K, x2 = 0.2 | 802.7 | 2.815
303.15 K, x2 = 0.298 | 803.36 | 2.819
303.15 K, x2 = 0.4 | 804.02 | 2.833
303.15 K, x2 = 0.5 | 804.67 | 2.852
303.15 K, x2 = 0.601 | 805.32 | 2.875
303.15 K, x2 = 0.699 | 805.92 | 2.901
303.15 K, x2 = 0.798 | 806.5 | 2.932
303.15 K, x2 = 0.901 | 807.06 | 2.974
308.15 K, x2 = 0 | 797.05 | 2.336
308.15 K, x2 = 0.1 | 797.85 | 2.354
308.15 K, x2 = 0.2 | 798.63 | 2.373
308.15 K, x2 = 0.298 | 799.35 | 2.392
308.15 K, x2 = 0.4 | 800.06 | 2.416
308.15 K, x2 = 0.5 | 800.76 | 2.442
308.15 K, x2 = 0.601 | 801.45 | 2.472
308.15 K, x2 = 0.699 | 802.11 | 2.504
308.15 K, x2 = 0.798 | 802.74 | 2.54
308.15 K, x2 = 0.901 | 803.33 | 2.587
313.15 K, x2 = 0 | 792.78 | 1.99
313.15 K, x2 = 0.1 | 793.65 | 2.016
313.15 K, x2 = 0.2 | 794.49 | 2.039
313.15 K, x2 = 0.298 | 795.28 | 2.063
313.15 K, x2 = 0.4 | 796.05 | 2.09
313.15 K, x2 = 0.5 | 796.8 | 2.119
313.15 K, x2 = 0.601 | 797.54 | 2.152
313.15 K, x2 = 0.699 | 798.25 | 2.188
313.15 K, x2 = 0.798 | 798.92 | 2.226
313.15 K, x2 = 0.901 | 799.56 | 2.272
318.15 K, x2 = 0 | 788.42 | 1.706
318.15 K, x2 = 0.1 | 789.37 | 1.726
318.15 K, x2 = 0.2 | 790.29 | 1.751
318.15 K, x2 = 0.298 | 791.13 | 1.778
318.15 K, x2 = 0.4 | 791.96 | 1.809
318.15 K, x2 = 0.5 | 792.77 | 1.842
318.15 K, x2 = 0.601 | 793.58 | 1.878
318.15 K, x2 = 0.699 | 794.34 | 1.916
318.15 K, x2 = 0.798 | 795.06 | 1.956
318.15 K, x2 = 0.901 | 795.75 | 1.997
323.15 K, x2 = 0 | 783.99 | 1.472
323.15 K, x2 = 0.1 | 785.02 | 1.498
323.15 K, x2 = 0.2 | 786.01 | 1.522
323.15 K, x2 = 0.298 | 786.92 | 1.546
323.15 K, x2 = 0.4 | 787.82 | 1.575
323.15 K, x2 = 0.5 | 788.69 | 1.607
323.15 K, x2 = 0.601 | 789.56 | 1.642
323.15 K, x2 = 0.699 | 790.38 | 1.679
323.15 K, x2 = 0.798 | 791.17 | 1.718
323.15 K, x2 = 0.901 | 791.88 | 1.762
328.15 K, x2 = 0 | 779.46 | 1.306
328.15 K, x2 = 0.1 | 780.57 | 1.317
328.15 K, x2 = 0.2 | 781.64 | 1.335
328.15 K, x2 = 0.298 | 782.65 | 1.359
328.15 K, x2 = 0.4 | 783.63 | 1.387
328.15 K, x2 = 0.5 | 784.57 | 1.418
328.15 K, x2 = 0.601 | 785.5 | 1.45
328.15 K, x2 = 0.699 | 786.38 | 1.486
328.15 K, x2 = 0.798 | 787.22 | 1.524
328.15 K, x2 = 0.901 | 787.98 | 1.564
